Drawing on US20090275574A1, “NOVEL COMPOUNDS-300” (ASTRAZENECA AB, priority 2008, published 2009), this text covers EC50 and efficacy for 4 molecules.

Each structure is given as a SMILES string.

Assay [1] deals with T1, hM1 (human Muscarinic receptor subtype 1) (Homo sapiens, UniProt P11229).
T1 construct: expressed in transfected cells; host or cells: CHO cells (ATCC)
T1 sequence (P11229 1-460): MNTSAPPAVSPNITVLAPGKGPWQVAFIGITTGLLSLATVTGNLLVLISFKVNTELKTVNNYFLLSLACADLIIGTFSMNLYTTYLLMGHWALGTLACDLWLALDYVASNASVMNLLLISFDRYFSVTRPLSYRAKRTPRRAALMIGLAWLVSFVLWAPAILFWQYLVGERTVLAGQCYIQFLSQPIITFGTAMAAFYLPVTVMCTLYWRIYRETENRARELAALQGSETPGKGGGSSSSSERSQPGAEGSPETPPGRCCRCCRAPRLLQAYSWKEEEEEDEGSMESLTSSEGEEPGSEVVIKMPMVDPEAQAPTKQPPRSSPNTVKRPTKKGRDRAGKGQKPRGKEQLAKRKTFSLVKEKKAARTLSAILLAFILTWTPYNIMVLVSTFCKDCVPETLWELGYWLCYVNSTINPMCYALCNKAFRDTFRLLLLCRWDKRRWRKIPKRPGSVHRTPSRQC
Put plainly: Human M1 calcium mobilization FLIPR assay. Type of assay: cell-based. The following applies: hM1 expressed in CHO cells, intracellular Ca2+ release (FLIPR). As to the method: (§1) Human M1, rat M1, Human M3 and Human M5 Calcium Mobilization FLIPR™ Assay The compound activity in the present invention (EC50 or IC50) is measured using a 384 plate-based imaging assay that monitors drug induced intracellular Ca^2+ release in whole cells. Activation of hM1 (human Muscarinic receptor subtype 1, gene bank access NM_000738), rM1 (rat Muscarinic receptor subtype 1, gene bank access NM_080773), hM3 (human Muscarinic receptor subtype 3, gene bank access NM_000740NM_000740) and hM5 (human Muscarinic receptor subtype 5, gene bank access NM_0121258), receptors expressed in CHO cells (Chinese hamster ovary cells, ATCC) is quantified in a Molecular Devices FLIPR IITM instrument as an increase in fluorescent signal. Inhibition of hM3 and hM5 by compounds is determined by the decrease in fluorescent signal in response to 2 nM acetylcholine activation. […] Prior to experiment, the cell culture medium is removed from the plates by inversion. […] Plates are incubated at 37° C. for 60 minutes prior to start the experiment. The incubation is terminated by washing the cells four times in assay buffer, leaving a residual 25 μl buffer per well. Cell plates are then transferred to the FLIPR, ready for compound additions. The day of experiment, acetylcholine and compounds are diluted in assay buffer in three-fold concentration range (10 points serial dilution) for addition by FLIPR instrument. For all calcium assays, a baseline reading is taken for 10 seconds followed by the addition of 12.5 μl of compounds, resulting in a total well volume of 37.5 μl. Data is collected every second for 60 pictures and then every 6 seconds for 20 pictures prior to the addition of agonist. For hM3 and hM5, before agonist addition, a second baseline reading is taken for 10 seconds followed by the addition of 12.5 μl of agonist or buffer, producing a final volume of 50 μl. After agonist stimulation, the FLIPR continues to collect data every second for 60 pictures and then every 6 seconds for 20 pictures. The fluorescence emission is read using filter 1 (emission 510-570 nm) by the FLIPR on board CCD camera. Calcium mobilization output data are calculated as the maximal relative fluorescence unit (RFU) minus the minimal value for both compound and agonist reading frame (except for hM1 and rM1 using only the maximal RFU). Data are analyzed using sigmoidal fits of a non-linear curve-fitting program (XLfit version 4.2.2 Excel add-in version 4.2.2 build 18 math 1Q version 2.1.2 build 18). All pEC50 and pIC50 values are reported as arithmetic means±standard error of mean of ‘n’ independent experiments.
On the technique in general: A change in cytosolic calcium serves as a functional read-out for many receptors and channels.

Assay [2] addresses T2, hM5 (human Muscarinic receptor subtype 5) (Homo sapiens, UniProt P08912).
T2 construct: expressed in transfected cells; host or cells: CHO cells (ATCC)
T2 sequence (P08912 1-532): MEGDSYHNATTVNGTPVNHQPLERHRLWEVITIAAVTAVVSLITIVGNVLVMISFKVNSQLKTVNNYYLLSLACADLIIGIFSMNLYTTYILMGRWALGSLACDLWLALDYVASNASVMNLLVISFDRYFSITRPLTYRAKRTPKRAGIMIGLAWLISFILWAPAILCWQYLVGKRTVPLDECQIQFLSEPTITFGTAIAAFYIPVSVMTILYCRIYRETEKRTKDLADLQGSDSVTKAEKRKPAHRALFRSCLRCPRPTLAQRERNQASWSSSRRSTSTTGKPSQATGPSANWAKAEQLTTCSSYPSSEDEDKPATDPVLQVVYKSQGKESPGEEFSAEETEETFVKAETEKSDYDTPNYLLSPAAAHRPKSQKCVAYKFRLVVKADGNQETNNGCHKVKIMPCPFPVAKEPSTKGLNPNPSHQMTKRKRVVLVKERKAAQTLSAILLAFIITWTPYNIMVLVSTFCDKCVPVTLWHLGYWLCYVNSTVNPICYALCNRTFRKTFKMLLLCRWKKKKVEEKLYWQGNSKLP
Put plainly: Human M5 calcium mobilization FLIPR assay. The following applies: hM5 expressed in CHO cells, intracellular Ca2+ release (FLIPR). The assay is classed as cell-based. As to the method: as §1

The target in assay [3] is T3, hM3 (human Muscarinic receptor subtype 3) (Homo sapiens, UniProt P20309).
T3 construct: expressed in transfected cells; host or cells: CHO cells (ATCC)
T3 sequence (P20309 whole entry): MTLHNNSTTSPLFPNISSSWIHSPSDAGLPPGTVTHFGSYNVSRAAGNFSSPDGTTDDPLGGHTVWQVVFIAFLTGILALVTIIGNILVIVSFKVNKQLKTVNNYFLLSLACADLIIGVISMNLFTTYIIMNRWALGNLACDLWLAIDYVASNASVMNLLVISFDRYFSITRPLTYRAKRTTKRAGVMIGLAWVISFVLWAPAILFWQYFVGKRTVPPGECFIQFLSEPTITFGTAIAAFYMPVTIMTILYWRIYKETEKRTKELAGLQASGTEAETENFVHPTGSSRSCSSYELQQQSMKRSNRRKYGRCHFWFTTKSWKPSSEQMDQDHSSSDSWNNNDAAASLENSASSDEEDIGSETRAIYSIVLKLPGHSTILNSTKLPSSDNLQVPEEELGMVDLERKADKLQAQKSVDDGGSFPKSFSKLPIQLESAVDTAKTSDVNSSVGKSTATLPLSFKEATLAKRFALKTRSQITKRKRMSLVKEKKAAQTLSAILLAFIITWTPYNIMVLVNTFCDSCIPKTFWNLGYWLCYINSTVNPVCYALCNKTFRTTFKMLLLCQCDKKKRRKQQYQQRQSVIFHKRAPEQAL
The assay can be described thus: Human M3 calcium mobilization FLIPR assay. The assay is classed as cell-based. As to conditions: hM3 expressed in CHO cells, intracellular Ca2+ release (FLIPR). As to the method:
as §1

The target in another assay is T4, cloned human M2 receptor (Homo sapiens, UniProt P08172).
T4 construct: purchased Perkin-Elmer RBHM2M; host or cells: Chinese hamster ovary cells (CHO), membranes
T4 sequence (P08172 1-466): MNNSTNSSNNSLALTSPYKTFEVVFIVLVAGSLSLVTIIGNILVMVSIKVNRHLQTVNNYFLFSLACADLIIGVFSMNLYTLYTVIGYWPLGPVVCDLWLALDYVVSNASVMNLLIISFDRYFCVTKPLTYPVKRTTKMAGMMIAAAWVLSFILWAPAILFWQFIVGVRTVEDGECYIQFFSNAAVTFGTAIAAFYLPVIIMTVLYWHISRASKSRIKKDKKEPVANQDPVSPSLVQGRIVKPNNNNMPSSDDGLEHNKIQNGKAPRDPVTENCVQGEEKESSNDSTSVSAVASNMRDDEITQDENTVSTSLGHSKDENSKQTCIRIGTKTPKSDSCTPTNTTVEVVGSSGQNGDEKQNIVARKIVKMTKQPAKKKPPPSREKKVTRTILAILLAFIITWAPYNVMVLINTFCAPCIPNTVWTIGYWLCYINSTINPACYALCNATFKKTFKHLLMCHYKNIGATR
Put plainly: hM2 receptor GTPγS binding. The following applies: CHO membranes expressing hM2, [35S]GTPγS binding. Type of assay: biochemical. As to the method: hM2 Receptor GTPγS Binding Membranes produced from Chinese hamster ovary cells (CHO) expressing the cloned human M2 receptor (human Muscarinic receptor subtype 2, gene bank access NM_000739), are obtained from Perkin-Elmer (RBHM2M). The membranes are thawed at 37° C., passed 3 times through a 23-gauge blunt-end needle, diluted in the GTPγS binding buffer (50 mM Hepes, 20 mM NaOH, 100 mM NaCl, 1 mM EDTA, 5 mM MgCl2, pH 7.4, 100 μM DTT). The EC50, IC50 and Emax of the compounds of the invention are evaluated from 10-point dose-response curves (three fold concentration range) done in 60 μl in 384-well non-specific binding surface plate (Corning). Ten microliters from the dose-response curves plate (5× concentration) are transferred to another 384 well plate containing 25 μl of the following: 5 μg of hM2 membranes, 500 μg of Flashblue beads (Perkin-Elmer) and GDP 25 μM. An additional 15 μl containing 3.3× (60,000 dpm) of GTPγ^35S (0.4 nM final) are added to the wells resulting in a total well volume of 50 μl. Basal and maximal stimulated [^35S]GTPγS binding are determined in absence and presence of 30 μM final of acetylcholine agonist. The membranes/beads mix are pre-incubated for 15 minutes at room temperature with 25 μM GDP prior to distribution in plates (12.5 μM final). The reversal of acetylcholine-induced stimulation (2 μM final) of [^35S]GTPγS binding is used to assay the antagonist properties (IC50) of the compounds. The plates are incubated for 60 minutes at room temperature then centrifuged at 400 rpm for 5 minutes. The radioactivity (cpm) is counted in a Trilux (Perkin-Elmer). Values of EC50, IC50 and Emax are obtained using sigmoidal fits of a non-linear curve-fitting program (XLfit version 4.2.2 Excel add-in version 4.2.2 build 18 math 1Q version 2.1.2 build 18) of percent stimulated [^35S]GTPγS binding vs. log(molar ligand). All pEC50 and pIC50 values are reported as arithmetic means±standard error of mean of ‘n’ independent experiments.
A general note: GTPγS is a poorly hydrolysed GTP analogue; its binding reports G protein activation.

Assay [4] can be described thus: one or more of the biological assays described above (unspecified). The following applies: tested using one or more of the biological assays described above. As to the method: The compound activity in the present invention (EC50 or IC50) is measured using a 384 plate-based imaging assay that monitors drug induced intracellular Ca^2+ release in whole cells. Activation of hM1 (human Muscarinic receptor subtype 1, gene bank access NM_000738), rM1 (rat Muscarinic receptor subtype 1, gene bank access NM_080773), hM3 (human Muscarinic receptor subtype 3, gene bank access NM_000740NM_000740) and hM5 (human Muscarinic receptor subtype 5, gene bank access NM_0121258), receptors expressed in CHO cells (Chinese hamster ovary cells, ATCC) is quantified in a Molecular Devices FLIPR IITM instrument as an increase in fluorescent signal. Inhibition of hM3 and hM5 by compounds is determined by the decrease in fluorescent signal in response to 2 nM acetylcholine activation.
Membranes produced from Chinese hamster ovary cells (CHO) expressing the cloned human M2 receptor (human Muscarinic receptor subtype 2, gene bank access NM_000739), are obtained from Perkin-Elmer (RBHM2M). […] The EC50, IC50 and Emax of the compounds of the invention are evaluated from 10-point dose-response curves (three fold concentration range) done in 60 μl in 384-well non-specific binding surface plate (Corning). […] Basal and maximal stimulated [^35S]GTPγS binding are determined in absence and presence of 30 μM final of acetylcholine agonist. […] The radioactivity (cpm) is counted in a Trilux (Perkin-Elmer). […]

With `O=C1CO[C@H]2CCCC[C@@H]2N1C1CCN(C2CCC(COCC3CCC3)CC2)CC1` (single isomer, unassigned) [Example 28], the EC50 (usually the concentration at which the effect is half-maximal) was 0.051 µM in assay [1], greater than 40 µM in assay [2], greater than 40 µM in assay [3] and greater than 90 µM at cloned human M2 receptor.

Consider `CC(C)OCC1CCC(N2CCC(N3C(=O)NC[C@H]4CCCC[C@@H]43)CC2)CC1` (single isomer, unassigned) [Example 03], for which the EC50 in assay [1] was 0.058 µM; in assay [2], greater than 14.5 µM; in assay [3] it was greater than 40 µM; on cloned human M2 receptor, 1.7 µM.

Take `O=C1CO[C@H]2CCCC[C@@H]2N1C1CCN(C2CCC(COCC3CCC3)CC2)CC1` (single isomer, unassigned) [Example 29]: the EC50 in assay [1] is 0.15 µM; in assay [2], greater than 40 µM; in assay [3], greater than 40 µM; at cloned human M2 receptor, greater than 90 µM.

On to `CC(C)OC1CCC(N2CCC(N3C(=O)NC[C@H]4CCCC[C@@H]43)CC2)CC1` (single isomer, unassigned) [diastereomer 2], for which, in assay [4], the efficacy entry is listed as “does not show efficacy”.
